Data taken from patent US8071777B2, “Compounds derived from artesunate, preparation process, pharmaceutical composition and use of the respective medicine” (Fundação Oswaldo Cruz - FIOCRUZ, priority 2004, dated 2011).
Values after ≈ are worked out from the molar mass of the structure shown. Values joined by “and” are separate entries in the source; they are usually repeats but may differ in a detail not shown here. Equal values may be shown once. Read-outs that look alike come from different tables or passages of the source.

Columns and labels:
[1] = system: Plasmodium berghei; assay: Antimalarial activity in vivo in mice infected with Plasmodium berghei NK 65, oral treatment for 4 days; details: for Average parasitaemia (%) ± SD on day 5 / Average parasitaemia (%) ± SD on day 7: 12 mg/kg via oral for 4 days in sequence, mice infected by Plasmodium berghei; for Average parasitaemia (%) ± SD on day 5: day 5 of infection; for Average parasitaemia (%) ± SD on day 7: day 7 of infection; for Cumulative mortality on day 10 of infection / Cumulative mortality on day 19 of infection / Cumulative mortality on day 23 of infection / Cumulative mortality on day 35 of infection / Cumulative mortality on day 48 of infection: 5 mice in each group; for % Inhibition of parasitaemia on day 5: day 5, in relation to the group control not treated; for % Inhibition of parasitaemia on day 7: day 7, in relation to the group control not treated; for Suppression of the acute parasitaemia of treated animals: evaluations on the 5th and 7th day after the infection; for Parasitaemia at late follow-up: negative or recrudescence: new blood samples days 30 to 48
Experimental: To evaluate the antimalarial activity the following tests were carried out in different experiments in vivo using groups of Swiss female albino mice, weighing between 18 and 22 g. These mice were innoculated with 100,000 red cells infected with strain NK 65 of Plasmodium berghei (cause of malaria in rodents) according to the scheme previously proposed (Peters et al., Annals of Tropical Medicine and Parasitology, 1993, 87, 547). After inoculating the parasite via intraperitoneal, the animals were divided at random into groups of five. The treatment of the mice were initiated the day after the inoculation, for 4 days in sequence, applying samples “A”, “B” e “C” administered via oral. The different groups of mice, represented by groups treated and not treated (group control) were kept in the same conditions, in polyacetylene cages, water and ration was offered ad libitum. A group was treated with chloroquine, an antimalarial of reference. The development of the infection was verified in all groups through blood samples collected for parasitaemia on the 5th and 7th day after the infection, and the parasitaemia was measured based on double blind tests, in codified slides, in order to minimize occasional bias.
(§1) Not only in vivo but also in vitro, the activity of drugs was evaluated in relation to the group control without any drugs.

[2] = system: P. falciparum (W2); assay: Antimalarial activity in vitro against P. falciparum cultivated in red cells, 72 hours; format: cell-based; details: for IC50: Plasmodium falciparum
Experimental: The tests in vitro to evaluate the antimalarial activity were carried out with P. falciparum cultivated in red cells in 10% of human serum, in slabs of 96 wells, using Rieckman et al's traditional method, modified by Carvalho et al. Braz J. Med. Biol. Research, 1991. The parasites were incubated for 72 hours in culture medium having samples “A”, “B” and “C” in different dilutions in ideal atmospherical conditions at 37° C.; drugs and the culture medium was changed every 24 hours. After this period, blood samples were collected for evaluation of the activity of each compound. As to control wells with complete culture medium were maintained, but with no addition of drugs, and wells in which chloroquine was present in different tested concentrations in triplicate.
as §1

[3] = 12 mg/kg via oral for 4 days, day 48
[4] = P. falciparum (W2) in vitro, Experiment 1, approximated
[5] = P. falciparum (W2) in vitro, Experiment 2, approximated
[6] = W2, read-out: Inhibiting concentration (IC) 50%, Experiment 1
[7] = W2, read-out: Inhibiting concentration (IC) 50%, Experiment 2

SMILES | Average parasitaemia (%) ± SD on day 5 [1] [%] | Average parasitaemia (%) ± SD on day 7 [1] [%] | Cumulative mortality on day 10 of infection ([1]; 12 mg/kg via oral for 4 days) | Cumulative mortality on day 19 of infection ([1]; 12 mg/kg via oral for 4 days) | Cumulative mortality on day 23 of infection ([1]; 12 mg/kg via oral for 4 days) | Cumulative mortality on day 35 of infection ([1]; 12 mg/kg via oral for 4 days) | Cumulative mortality on day 48 of infection [1, 3] | % Inhibition of parasitaemia on day 5 ([1]; 12 mg/kg via oral for 4 days) | % Inhibition of parasitaemia on day 7 ([1]; 12 mg/kg via oral for 4 days) | Suppression of the acute parasitaemia of treated animals ([1]; 12 mg/kg via oral) [%] | Parasitaemia at late follow-up: negative or recrudescence ([1]; 12 mg/kg via oral) | Inhibiting concentration (IC) 40%, Experiment 1 [2, 4] [ng/mL] | Inhibiting concentration (IC) 80%, Experiment 1 [2, 4] [ng/mL] | Inhibiting concentration (IC) 95%-100%, Experiment 1 [2, 4] | Inhibiting concentration (IC) 40%, Experiment 2 [2, 5] [ng/mL] | Inhibiting concentration (IC) 80%, Experiment 2 [2, 5] | Inhibiting concentration (IC) 95%-100%, Experiment 2 [2, 5] | IC50 [2, 6] [ng/mL] | IC50 [2, 7] [ng/mL] | also measured
OC(c1cc(C(F)(F)F)nc2c(C(F)(F)F)cccc12)C1CCCCN1 (stereo not drawn) [C, mefloquine] | 0 | 0 | 0 | 0 | 0 | 0 | 0 | (100%) | (100%) | 100 | remained negative | 0.93 | 12.9 | ≧50 ng/ml | 2.8 | ≧5 ng/ml | ≧5 ng/ml |  |  | IC50 ([2]; P. falciparum (W2) in vitro, Experiment 1, approximated, read-out: Inhibiting concentration (IC) 50%, Experiment 1): 1.24 ng/mL (≈ 3.28 nM); IC50 ([2]; P. falciparum (W2) in vitro, Experiment 2, approximated, read-out: Inhibiting concentration (IC) 50%, Experiment 2): 3.4 ng/mL (≈ 8.99 nM)
CC1CCC2C(C)C(OC(=O)CCC(=O)O)OC3OC4(C)CCC1C32OO4.OC(c1cc(C(F)(F)F)nc2c(C(F)(F)F)cccc12)C1CCCCN1 (stereo not drawn) [A, salt of artesunate and mefloquine] | 0 | 0 | 0 | 0 | 0 | 0 | 0 | (100%) | (100%) | 100 | remained negative | 0.83 | 1.85 | 4.07 ng/mL | 0.46 | 1.5 ng/mL | ≧5 ng/ml |  |  | Cure of malaria in treated animals ([1]; 12 mg/kg via oral for 4 days): the cure of malaria was observed; Inhibiting concentration (IC) 50%, Experiment 1 [2, 4]: 1.03 ng/mL; Inhibiting concentration (IC) 50%, Experiment 2 [2, 5]: 0.8 ng/mL
C[C@H]1[C@H](OC(=O)CCC(=O)O)O[C@@H]2O[C@@]3(C)CC[C@H]4[C@H](C)CC[C@@H]1[C@@]24OO3 [B, artesunate] | 0 | 0 | 0 | 0 | 1 | 2 | 3 | (100%) | (100%) | 100 | showed recrudescency of the parasitaemia | 0.37 | 0.99 | 1.54 ng/mL | 0.33 | 1.3 ng/mL | ≧5 ng/ml | 0.46 (≈ 1.2 nM) | 0.43 (≈ 1.12 nM) | Mortality during follow-up of treatment ([1]; 12 mg/kg via oral, follow-up of about 30 days): mortality occurred; % parasitaemia, Average ± Sd, day 30 ([1]; 12 mg/kg, group average, day 30): 16.6 ± 20.4%; % parasitaemia, Average ± Sd, day 33 ([1]; 12 mg/kg, group average, day 33): 23.3 ± 24.3%; % parasitaemia, Average ± Sd, day 36 ([1]; 12 mg/kg, group average, day 36): 33.5 ± 27.4%; % parasitaemia, Average ± Sd, day 48 ([1]; 12 mg/kg, group average, day 48): 30 ± 21.2%; % Individual parasitaemia on day 30 (recrudescence) ([1]; 12 mg/kg, individual animals infected by P. berghei, day 30, † = Animal death): 0.6% and 24% and 0% and 42%; % Individual parasitaemia on day 33 (recrudescence) ([1]; 12 mg/kg, individual animals infected by P. berghei, day 33, † = Animal death): 5% and 40% and 0% and 48%; % Individual parasitaemia on day 36 (recrudescence) ([1]; 12 mg/kg, individual animals infected by P. berghei, day 36, † = Animal death): 14% and 53% and 0%; % Individual parasitaemia on day 48 (recrudescence) ([1]; 12 mg/kg, individual animals infected by P. berghei, day 48, † = Animal death): 30% and 0%
CCN(CC)CCCC(C)Nc1ccnc2cc(Cl)ccc12 (stereo not drawn) [QC, chloroquine] |  |  |  |  |  |  |  |  |  |  |  | 41.1 | 82.3 | 277.7 ng/mL | 48.2 | 133.4 ng/mL | ≧200 ng/ml | 51.3 (≈ 160 nM) | 55.5 (≈ 174 nM) | 
